# Source: patent publication EP2724723A1, “Tegaserod for use in the treatment of nerve injuries” (Universitätsklinikum Hamburg-Eppendorf, priority 2012, dated 2014)
# How the values were obtained:
# murine motoneurons = assay: In vitro neurite outgrowth of motoneurons; format: cell-based, C57BL/6J mice; conditions: tegaserod, cisapride, GR113808 100 nM; colominic acid 3 µM; PSA mimicking peptide 30 µM; Figure 2B
# Method: (§1) Primary cultures of cerebellar neurons or Schwann cells were prepared from cerebellum or dorsal root ganglia of 7-day-old C57BL/6J mice as described in Mehanna et al. (2009), Brain, 132 (Pt 6): 1449-62 and Loers et al. (2005), J. Neurochem., 92(6): 1463-76. Motoneurons were prepared from E14 C57BL/6J mice as described in Simova et al. (2006), Ann. Neurol., 60(4): 430-437. In brief, 48-well plates were coated with 0.01% poly-L-lysine (PLL) or poly-L-ornithine (PLO) overnight at 4°C, washed twice with water and air-dried. Directly before use, plates were washed twice with PBS, and Schwann cells, cerebellar neurons (PLL) or motoneurons (PLO) were seeded at a density of 1.25 x 10^4 (Schwann cells and motoneurons) or 2.5 x 10^4 cells (cerebellar neurons) per well in 250 µl of corresponding serum-free culture medium. Soluble organic compounds were added to the culture 1 h after seeding in increasing concentrations. After maintenance for 24 h at 37°C, cells were fixed with 2.5% glutaraldehyde and stained with 1% methylene blue/toluidine blue in 1% borax. Morphological quantification of neurite or process lengths was performed as described in Mehanna et al. (2009), see above. Schwann cell processes and neurites of cerebellar neurons with a length of at least one cell body diameter were counted and total neurite or process length per cell was determined by counting 50 cells in each of two wells per experiment. At least three independent experiments were performed for each culture. Also, the activity of tegaserod with the PSA peptide mimic and the bacterial PSA analogue, colominic acid, on neurite and process extension experiments was compared.
# [1] = test system: cerebellar granule neurons (cGNs); assay: In vitro neurite outgrowth of cerebellar granule neurons; format: cell-based, C57BL/6J mice; conditions: compared to control; Figure 2C, D
# Method: as §1
# [2] = test system: motoneurons isolated from NCAM^-/- mice; assay: In vitro neurite outgrowth of NCAM-deficient motoneurons; format: cell-based; conditions: tegaserod 100 nM; colominic acid 3 µM; PSA mimicking peptide 30 µM; Figure 2B
# Method: as §1, with “After maintenance for 24 h at 37°C, cells were fixed with 2.5% glutaraldehyde and stained with 1% methylene blue/toluidine blue in 1% borax.” left out, “At least three independent experiments were performed for each culture. Also, the activity of tegaserod with the PSA peptide mimic and the bacterial PSA analogue, colominic acid, on neurite and process extension experiments was compared.” left out
# [3] = test system: murine cerebellar granule neurons (cGNs), Schwann cells, and motoneurons; assay: In vitro neurite/process outgrowth, statements covering all cell types; format: cell-based, C57BL/6J mice
# Method: as §1
Compound,effect on neurite extension of murine motoneurons (in words) (murine motoneurons),effect on neurite outgrowth of cGNs (in words) [1],effect on neurite extension of NCAM^-/- motoneurons (in words) [2],concentration of maximal stimulatory effects ([3]; neurite and process extension of neurons and Schwann cells) [µM],effect of overdosing / higher concentrations (in words) ([3]; neurons and Schwann cells)
Cn1cc(C(=O)OCC2CCN(CCNS(C)(=O)=O)CC2)c2ccccc21 [GR 113808],no ability to enhance motoneuron neurite extension,,,,
COc1cc(N)c(Cl)cc1C(=O)NC1CCN(CCCOc2ccc(F)cc2)CC1OC (stereo not drawn) [cisapride],no ability to enhance motoneuron neurite extension,not observed,,,
NCCc1c[nH]c2ccc(O)cc12 [serotonin],no ability to enhance motoneuron neurite extension,not observed,,,
NTHTDPYIYPIDC [PSA mimicking peptide],significant stimulatory effect,,no enhancement in neurite extension,30,did not lead to any negative side effects
